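Protocol summary: plate cells (96-well), add compound at 5 concentrations, incubate 48 h, interpolate endpoints linearly. GI50 marks 50% less growth.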 Calls of active or inactive are those of the source. Rule as the data show it: active = GI50 up to about 1.1 µM and inactive = higher.
Columns and labels:
Assay in all cases: NCI anticancer screen, dose series, 48 h
[1] = tested on: SK-MEL-28
[2] = tested on: UACC-62
[3] = tested on: HCC 2998
[4] = tested on: CCRF-CEM
[5] = tested on: SK-OV-3
[6] = tested on: UACC-257
[7] = tested on: OVCAR-3
[8] = tested on: OVCAR-8
[9] = tested on: NCI-H226
[10] = tested on: A549
[11] = tested on: HT-29
[12] = tested on: SNB-75
[13] = tested on: IGROV-1
[14] = tested on: A498
[15] = tested on: NCI-H23
[16] = tested on: SNB-19
[17] = tested on: SW-620
[18] = tested on: SN12C
[19] = tested on: HOP-92

Measured: GI50

CN1CCS(=O)(=O)NC(Cc2ccccc2)C(=O)N2CCCC2C1=O (stereo unspecified)
inactive: [1] > 100 µM | [2] > 100 µM | [3] > 100 µM | [4] > 100 µM | [5] > 100 µM | [6] > 100 µM | [7] > 100 µM | [8] > 100 µM | [9] > 100 µM | [10] > 100 µM | [11] > 100 µM | [12] > 100 µM | [13] > 100 µM | [14] > 100 µM | [15] > 100 µM | [16] > 100 µM | [17] > 100 µM | [18] > 100 µM

COc1cc(CCc2ccc(OC(C)=O)cc2)cc(OC)c1OC
inactive: [19] 49 µM | [1] > 100 µM | [2] > 100 µM | [4] > 100 µM | [6] > 100 µM | [7] > 100 µM | [8] > 100 µM | [9] > 100 µM | [10] > 100 µM | [11] > 100 µM | [12] 80.5 µM | [13] > 100 µM | [14] > 100 µM | [16] > 100 µM | [17] > 100 µM | [18] > 100 µM

Cc1cc(NS(=O)(=O)c2ccc(NC(=O)c3cccc4c(Nc5ccc(S(=O)(=O)Nc6cc(C)on6)cc5)c5ccccc5nc34)cc2)no1
inactive: [19] 17.5 µM | [1] 40.3 µM | [2] 17.5 µM | [4] 35.6 µM | [5] > 100 µM | [6] > 100 µM | [7] 87.3 µM | [8] 70.3 µM | [10] > 100 µM | [11] > 100 µM | [12] 22.3 µM | [13] 27.7 µM | [14] 68.9 µM | [15] 44.5 µM | [16] 32.7 µM | [17] > 100 µM | [18] 39.4 µM

COC(=O)C(CCC1(C)OCCO1)C(C)=O (stereo unspecified)
inactive: [1] > 100 µM | [3] > 100 µM | [4] > 100 µM | [5] > 100 µM | [6] > 100 µM | [7] > 100 µM | [8] > 100 µM | [9] > 100 µM | [10] > 100 µM | [11] > 100 µM | [12] > 100 µM | [13] > 100 µM | [14] > 100 µM | [15] > 100 µM | [16] > 100 µM | [17] > 100 µM | [18] > 100 µM

CCCCN(CCCC)c1ccc(/N=N/c2ccc(S(=O)(=O)O)cc2)cc1
inactive: [19] 7 µM | [1] 81.3 µM | [2] > 100 µM | [3] 24 µM | [4] 18.4 µM | [5] 25.5 µM | [6] 94.4 µM | [7] 30.1 µM | [8] 22 µM | [10] 39.8 µM | [11] 26.4 µM | [12] 11.7 µM | [13] 14.7 µM | [14] 31.4 µM | [15] 20.6 µM | [16] 75.9 µM | [17] 33 µM | [18] 25.4 µM

CCN(CC)c1ccc(C(=O)c2ccccc2C(=O)O)c(O)c1
inactive: [19] > 100 µM | [1] > 100 µM | [2] > 100 µM | [4] > 100 µM | [5] > 100 µM | [6] > 100 µM | [7] > 100 µM | [8] > 100 µM | [10] > 100 µM | [11] > 100 µM | [12] > 100 µM | [13] > 100 µM | [14] > 100 µM | [15] > 100 µM | [16] > 100 µM | [17] > 100 µM | [18] > 100 µM

CCCCOC(=O)CNC(=O)OCCCCC#CC#CCCCCOC(=O)NCC(=O)OCCCC
inactive: [2] > 100 µM | [3] > 100 µM | [4] > 100 µM | [5] > 100 µM | [6] > 100 µM | [8] > 100 µM | [9] > 100 µM | [10] > 100 µM | [11] > 100 µM | [12] > 100 µM | [13] > 100 µM | [14] > 100 µM | [15] > 100 µM | [16] > 100 µM | [17] > 100 µM | [18] > 100 µM

CCOP(=O)(OCC)OC1C=CC2CCC1C2 (stereo unspecified)
inactive: [1] > 100 µM | [2] > 100 µM | [3] > 100 µM | [4] > 100 µM | [5] > 100 µM | [6] > 100 µM | [7] > 100 µM | [8] > 100 µM | [9] > 100 µM | [10] > 100 µM | [11] > 100 µM | [12] > 100 µM | [13] > 100 µM | [14] > 100 µM | [15] > 100 µM | [16] > 100 µM | [18] > 100 µM
